Laboratory results taken from PubChem BioAssay AID1259407 (Chemical Carcinogenesis Research Information System (CCRIS), 2018).
Calls of active or inactive are those of the source. The rule behind the calls is not given here.

Test system: CCRIS mutagenicity, Ames/micronucleus/aberration tests
Assay: CCRIS mutagenicity studies
Conditions: Test System: AMES SALMONELLA TYPHIMURIUM, Method: PREINCUBATION

Measured: mutagenic call

O=C1CCC(=O)O1
inactive: Strain/Indicator: TA97, Metabolic Activation: HAMSTER, LIVER, S-9, AROCLOR 1254 (10%) inactive; negative | Strain/Indicator: TA97, Metabolic Activation: HAMSTER, LIVER, S-9, AROCLOR 1254 (30%) inactive; negative | Strain/Indicator: TA97, Metabolic Activation: HAMSTER, LIVER, S-9, AROCLOR 1254 inactive; negative | Strain/Indicator: TA97, Metabolic Activation: NONE inactive; negative | Strain/Indicator: TA97, Metabolic Activation: RAT, LIVER, S-9, AROCLOR 1254 (10%) inactive; negative | Strain/Indicator: TA97, Metabolic Activation: RAT, LIVER, S-9, AROCLOR 1254 (30%) inactive; negative | Strain/Indicator: TA97, Metabolic Activation: RAT, LIVER, S-9, AROCLOR 1254 inactive; negative | Strain/Indicator: TA98, Metabolic Activation: HAMSTER, LIVER, S-9, AROCLOR 1254 (10%) inactive; negative | Strain/Indicator: TA98, Metabolic Activation: HAMSTER, LIVER, S-9, AROCLOR 1254 (30%) inactive; negative | Strain/Indicator: TA98, Metabolic Activation: HAMSTER, LIVER, S-9, AROCLOR 1254 inactive; negative | Strain/Indicator: TA98, Metabolic Activation: NONE inactive; negative | Strain/Indicator: TA98, Metabolic Activation: RAT, LIVER, S-9, AROCLOR 1254 (10%) inactive; negative | Strain/Indicator: TA98, Metabolic Activation: RAT, LIVER, S-9, AROCLOR 1254 (30%) inactive; negative | Strain/Indicator: TA98, Metabolic Activation: RAT, LIVER, S-9, AROCLOR 1254 inactive; negative | Strain/Indicator: TA100, Metabolic Activation: HAMSTER, LIVER, S-9, AROCLOR 1254 (10%) inactive; negative | Strain/Indicator: TA100, Metabolic Activation: HAMSTER, LIVER, S-9, AROCLOR 1254 (30%) inactive; negative | Strain/Indicator: TA100, Metabolic Activation: HAMSTER, LIVER, S-9, AROCLOR 1254 inactive; negative | Strain/Indicator: TA100, Metabolic Activation: NONE inactive; negative | Strain/Indicator: TA100, Metabolic Activation: RAT, LIVER, S-9, AROCLOR 1254 (10%) inactive; negative | Strain/Indicator: TA100, Metabolic Activation: RAT, LIVER, S-9, AROCLOR 1254 (30%) inactive; negative | Strain/Indicator: TA100, Metabolic Activation: RAT, LIVER, S-9, AROCLOR 1254 inactive; negative | Strain/Indicator: TA1535, Metabolic Activation: HAMSTER, LIVER, S-9, AROCLOR 1254 (10%) inactive; negative | Strain/Indicator: TA1535, Metabolic Activation: HAMSTER, LIVER, S-9, AROCLOR 1254 (30%) inactive; negative | Strain/Indicator: TA1535, Metabolic Activation: HAMSTER, LIVER, S-9, AROCLOR 1254 inactive; negative | Strain/Indicator: TA1535, Metabolic Activation: NONE inactive; negative | Strain/Indicator: TA1535, Metabolic Activation: RAT, LIVER, S-9, AROCLOR 1254 (10%) inactive; negative | Strain/Indicator: TA1535, Metabolic Activation: RAT, LIVER, S-9, AROCLOR 1254 (30%) inactive; negative | Strain/Indicator: TA1535, Metabolic Activation: RAT, LIVER, S-9, AROCLOR 1254 inactive; negative | Strain/Indicator: TA1537, Metabolic Activation: HAMSTER, LIVER, S-9, AROCLOR 1254 (10%) inactive; negative | Strain/Indicator: TA1537, Metabolic Activation: HAMSTER, LIVER, S-9, AROCLOR 1254 inactive; negative | Strain/Indicator: TA1537, Metabolic Activation: NONE inactive; negative | Strain/Indicator: TA1537, Metabolic Activation: RAT, LIVER, S-9, AROCLOR 1254 (10%) inactive; negative | Strain/Indicator: TA1537, Metabolic Activation: RAT, LIVER, S-9, AROCLOR 1254 inactive; negative
